The text below walks through data of patent US8748436B2, “Carboxylic acid derivatives having a 2,5,7-substituted oxazolopyrimidine ring” (Sanofi, priority 2010, dated 2014).

The target of the first assay is T1, human Edg-1 receptor (Homo sapiens, UniProt P21453).
T1 construct: FLAG (N); expressed in transfected cells; membrane preparation
T1 sequence (P21453 whole entry): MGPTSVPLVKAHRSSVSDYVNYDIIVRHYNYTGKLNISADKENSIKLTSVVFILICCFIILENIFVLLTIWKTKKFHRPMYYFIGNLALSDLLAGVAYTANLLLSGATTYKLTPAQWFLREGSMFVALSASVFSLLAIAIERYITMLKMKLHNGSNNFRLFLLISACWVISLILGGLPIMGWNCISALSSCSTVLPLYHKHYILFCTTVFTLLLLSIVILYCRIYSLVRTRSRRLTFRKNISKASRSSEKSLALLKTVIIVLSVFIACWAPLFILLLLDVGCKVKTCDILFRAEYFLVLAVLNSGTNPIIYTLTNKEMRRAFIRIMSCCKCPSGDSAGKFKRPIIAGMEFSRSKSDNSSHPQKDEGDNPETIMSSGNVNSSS
Nature of the assay: GTP-γ-S assay using human Edg-1 receptors (scintillation proximity assay, CHO Flp-In cell membrane preparation). The conditions noted are these: test compound at 10 μM; high control 10 μM S1P regarded as 100% activation; [35S]GTP-γ-S binding, triplicate. It counts as biochemical. In a few lines: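 Scintillation proximity GTP-γ-S binding measured receptor activation. Membranes came from a stably transfected CHO Flp-In line constitutively overexpressing N-terminally FLAG-tagged human Edg-1. Membranes were prepared by hypotonic lysis (5 mM HEPES, 1 mM EDTA, protease inhibitors) at 4 °C and Dounce homogenisation.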
`CCCOc1nc(OC(C)CC(F)(F)F)nc2oc(-c3cc(C)c(OCC(=O)O)c(C)c3)nc12` (centres unmarked) [Example 21, {2,6-dimethyl-4-[7-propoxy-5-(3,3,3-trifluoro-1-methyl-propoxy)-oxazolo[5,4--d]pyrimidin-2-yl]-phenoxy}-acetic acid]: the “% Activation (Edg-1 receptor activation in percent of the activation by 10 μM S1P)” value turned out to be 81%.
On the same count and under the same terms, the value for `CCCOc1nc(Oc2ccc(F)cc2)nc2oc(-c3cc(C)c(OCC(=O)O)c(C)c3)nc12` [Example 35, {4-[5-(4-fiuorophenoxy)-7-propoxy-oxazolo[5,4-d]pyrimidin-2-yl]-2,6-dimethylphenoxy}-acetic acid] was 79%.

The assay is the same for the next values; noted with them: test compound at 10 μM; high control 10 μM S1P regarded as 100% activation; [35S]GTP-γ-S binding, triplicate; read-out: % Activation (Edg-1 receptor activation in percent of the activation by 10 μM S1P).
`CCCOc1nc(OCCC2CC2)nc2oc(-c3cc(C)c(OCC(=O)O)c(C)c3)nc12` [Example 23, {4-[5-(2-cyclopropyl-ethoxy)-7-propoxy-oxazolo[5,4-d]pyrimidin-2-yl]-2,6-dimethyl-phenoxy}-acetic acid]: the activation at 10 µM amounted to 98%.
The same measure, in the same setting: the result for `CCCOc1nc(Oc2ccc3ncsc3c2)nc2oc(-c3cc(C)c(OCC(=O)O)c(C)c3)nc12` [Example 66, {4-[5-(benzothiazol-6-yloxy)-7-propoxy-oxazolo[5,4-d]pyrimidin-2-yl]-2,6-dimethylphenoxy}-acetic acid] reads 102%.
Turning to `CCCOc1nc(Oc2ccccc2Cl)nc2oc(-c3cc(C)c(OCC(=O)O)c(C)c3)nc12` [Example 47, {4-[5-(2-chlorophenoxy)-7-propoxy-oxazolo[5,4-d]pyrimidin-2-yl]-2,6-dimethylphenoxy}-acetic acid], the activation at 10 µM turned out to be 86%.
The same measure, in the same setting: the value for `CCCOc1nc(Oc2ccc(F)c(F)c2)nc2oc(-c3cc(C)c(OCC(=O)O)c(C)c3)nc12` [Example 51, {4-[5-(3,4-difluorophenoxy)-7-propoxy-oxazolo[5,4-d]pyrimidin-2-yl]-2,6-dimethylphenoxy}-acetic acid] was 49%.
Still for that read-out and setting: the result for `CCCOc1nc(Oc2ccc(F)c(C(F)(F)F)c2)nc2oc(-c3cc(C)c(OCC(=O)O)c(C)c3)nc12` [Example 74, {4-[5-(4-fluoro-3-trifluoromethylphenoxy)-7-propoxy-oxazolo[5,4-d]pyrimidin-2-yl]-2,6-dimethyl-phenoxy}-acetic acid] reads 61%.
The same measure, in the same setting: the value for `CCCOc1nc(OCC2CCC2)nc2oc(-c3cc(C)c(OCC(=O)O)c(C)c3)nc12` [Example 13, [4-(5-cyclobutylmethoxy-7-propoxy-oxazolo[5,4-d]pyrimidin-2-yl)-2,6-dimethyl-phenoxy]-acetic acid] was 99%.
